Reference: patent US12077503B2, “Substituted cyclic amides and their use as herbicides” (FMC CORPORATION, priority 2015, dated 2024)

What was measured:
Type in all cases: in vivo
[1] = system: Galium (catchweed bedstraw, Galium aparine); assay: Test A postemergence
Description: (§1) Seeds of plant species selected from barnyardgrass (Echinochloa crus-galli), Kochia (Kochia scoparia), ragweed (common ragweed, Ambrosia elatior), ryegrass, Italian (Italian ryegrass, Lolium multiflorum), crabgrass, large (Digitaria sanguinalis), giant foxtail (Setaria faberii), green foxtail (Setaria viridis), morningglory (Ipomoea spp.), pigweed (Amaranthus retroflexus), velvetleaf (Abutilon theophrasti), wheat (Triticum aestivum), and corn (Zea mays) were planted into a blend of loam soil and sand and treated preemergence with a directed soil spray using test chemicals formulated in anon-phytotoxic solvent mixture which included a surfactant.
(§2) At the same time, plants selected from these crop and weed species and also blackgrass (Alopecurus myosuroides), and Galium (catchweed bedstraw, Galium aparine) were planted in pots containing the same blend of loam soil and sand and treated with postemergence applications of test chemicals formulated in the same manner. Plants ranged in height from 2 to 10 cm and were in the one- to two-leaf stage for the postemergence treatment. Treated plants and untreated controls were maintained in a greenhouse for approximately 10 d, after which time all treated plants were compared to untreated controls and visually evaluated for injury. Plant response ratings, summarized in Table A, are based on a 0 to 100 scale where 0 is no effect and 100 is complete control. A dash (-) response means no test result.

[2] = system: barnyardgrass (Echinochloa crus-galli); assay: Test A postemergence
Description: as §1, §2

[3] = system: blackgrass (Alopecurus myosuroides); assay: Test A postemergence
Description: as §1, §2

corn (Zea mays) = assay: Test A postemergence
Description: as §1, §2

[4] = system: wheat (Triticum aestivum); assay: Test A postemergence
Description: as §1, §2

[5] = system: pigweed (Amaranthus retroflexus); assay: Test A postemergence
Description: as §1, §2

[6] = system: ryegrass, Italian (Italian ryegrass, Lolium multiflorum); assay: Test A postemergence
Description: as §1, §2

[7] = system: ragweed (common ragweed, Ambrosia elatior); assay: Test A postemergence
Description: as §1, §2

[8] = system: giant foxtail (Setaria faberii); assay: Test A postemergence
Description: as §1, §2

Kochia (Kochia scoparia) [9] = assay: Test A postemergence
Description: as §1, §2

[10] = system: barnyardgrass (Echinochloa crus-galli); assay: Test A preemergence; conditions: Preemergence; for Plant response rating, Barnyardgrass: 125 g ai/ha, visual injury after approximately 10 d, 0 to 100 scale where 0 is no effect and 100 is complete control; for Barnyardgrass plant response rating (0 to 100 scale, 0 is no effect, 100 is complete control): 500 g ai/ha, visual injury approx. 10 d
Description: as §1, §2

[11] = system: pigweed (Amaranthus retroflexus); assay: Test A preemergence; conditions: Preemergence; for Plant response rating, Pigweed: 125 g ai/ha, visual injury after approximately 10 d, 0 to 100 scale where 0 is no effect and 100 is complete control; for Pigweed plant response rating (0 to 100 scale, 0 is no effect, 100 is complete control): 500 g ai/ha, visual injury approx. 10 d
Description: as §1, §2

[12] = system: ryegrass, Italian (Italian ryegrass, Lolium multiflorum); assay: Test A preemergence; conditions: Preemergence; for Plant response rating, Ryegrass, Italian: 125 g ai/ha, visual injury after approximately 10 d, 0 to 100 scale where 0 is no effect and 100 is complete control; for Ryegrass, Italian plant response rating (0 to 100 scale, 0 is no effect, 100 is complete control): 500 g ai/ha, visual injury approx. 10 d
Description: as §1, §2

[13] = system: ragweed (common ragweed, Ambrosia elatior); assay: Test A preemergence; conditions: Preemergence; for Plant response rating, Ragweed: 125 g ai/ha, visual injury after approximately 10 d, 0 to 100 scale where 0 is no effect and 100 is complete control; for Ragweed plant response rating (0 to 100 scale, 0 is no effect, 100 is complete control): 500 g ai/ha, visual injury approx. 10 d
Description: as §1, §2

[14] = system: giant foxtail (Setaria faberii); assay: Test A preemergence; conditions: Preemergence; for Plant response rating, Foxtail, Giant: 125 g ai/ha, visual injury after approximately 10 d, 0 to 100 scale where 0 is no effect and 100 is complete control; for Foxtail, Giant plant response rating (0 to 100 scale, 0 is no effect, 100 is complete control): 500 g ai/ha, visual injury approx. 10 d
Description: as §1, §2

Kochia (Kochia scoparia) [15] = assay: Test A preemergence; conditions: Preemergence; for Plant response rating, Kochia: 125 g ai/ha, visual injury after approximately 10 d, 0 to 100 scale where 0 is no effect and 100 is complete control; for Kochia plant response rating (0 to 100 scale, 0 is no effect, 100 is complete control): 500 g ai/ha, visual injury approx. 10 d
Description: as §1, §2

[16] = 125 g ai/ha, postemergence, visual rating after approx. 10 d, 0 to 100 scale (0 no effect, 100 complete control)
[17] = Postemergence, 500 g ai/ha, 0 to 100 scale where 0 is no effect and 100 is complete control

`CN1CC(c2ccc(Br)cc2)C(C(=O)Nc2cccc(F)c2F)C1=O` (stereo not drawn) [Compound 564] was tested, and the “Plant response rating, Galium” value [1, 16] was 70, the “Plant response rating, Galium” value [1, 17] was 70 and the “Plant response rating, Barnyardgrass” value [2, 16] was 90. The “Plant response rating, Barnyardgrass” value [2, 17] was 90, the “Plant response rating, Blackgrass” value [3, 16] was 40 and the “Plant response rating, Blackgrass” value [3, 17] was 70. The “Plant response rating, Corn” value (corn (Zea mays); [16]) was 70, the “Plant response rating, Corn” value (corn (Zea mays); [17]) was 80 and the “Plant response rating, Wheat” value [4, 16] was 40. For the same compound, the “Plant response rating, Wheat” value [4, 17] was 60, the “Plant response rating, Pigweed” value [5, 16] was 40 and the “Plant response rating, Pigweed” value [5, 17] was 70. For the same compound, the “Plant response rating, Ryegrass, Italian” value [6, 16] was 60, the “Plant response rating, Ryegrass, Italian” value [6, 17] was 70 and the “Plant response rating, Ragweed” value [7, 16] was 50. The “Plant response rating, Ragweed” value [7, 17] was 60, the “Plant response rating, Foxtail, Giant” value [8, 16] was 90 and the “Plant response rating, Foxtail, Giant” value [8, 17] was 90. The “Plant response rating, Kochia” value (Kochia (Kochia scoparia) [9]; [16]) was 80, the “Plant response rating, Kochia” value (Kochia (Kochia scoparia) [9]; [17]) was 80 and the “Plant response rating, Barnyardgrass” value [10] was 90. For the same compound, the “Barnyardgrass plant response rating (0 to 100 scale, 0 is no effect, 100 is complete control)” value [10] was 100, the “Plant response rating, Pigweed” value [11] was 90 and the “Pigweed plant response rating (0 to 100 scale, 0 is no effect, 100 is complete control)” value [11] was 90. The “Plant response rating, Ryegrass, Italian” value [12] was 40, the “Ryegrass, Italian plant response rating (0 to 100 scale, 0 is no effect, 100 is complete control)” value [12] was 90 and the “Plant response rating, Ragweed” value [13] was 80. For the same compound, the “Ragweed plant response rating (0 to 100 scale, 0 is no effect, 100 is complete control)” value [13] was 90, the “Plant response rating, Foxtail, Giant” value [14] was 90 and the “Foxtail, Giant plant response rating (0 to 100 scale, 0 is no effect, 100 is complete control)” value [14] was 100. The “Plant response rating, Kochia” value (Kochia (Kochia scoparia) [15]) was 80 and the “Kochia plant response rating (0 to 100 scale, 0 is no effect, 100 is complete control)” value (Kochia (Kochia scoparia) [15]) was 90.

With `CN1CC(c2ccc(Br)cc2)C(C(=O)Nc2ccccc2F)C1=O` (stereo not drawn) [Compound 563] the “Plant response rating, Galium” value [1, 16] was 70, the “Plant response rating, Galium” value [1, 17] was 70 and the “Plant response rating, Barnyardgrass” value [2, 16] was 90. For the same compound, the “Plant response rating, Barnyardgrass” value [2, 17] was 90, the “Plant response rating, Blackgrass” value [3, 16] was 40 and the “Plant response rating, Blackgrass” value [3, 17] was 50. For the same compound, the “Plant response rating, Corn” value (corn (Zea mays); [16]) was 20, the “Plant response rating, Corn” value (corn (Zea mays); [17]) was 50 and the “Plant response rating, Wheat” value [4, 16] was 20. The “Plant response rating, Wheat” value [4, 17] was 40, the “Plant response rating, Pigweed” value [5, 16] was 0 and the “Plant response rating, Pigweed” value [5, 17] was 40. The “Plant response rating, Ryegrass, Italian” value [6, 16] was 40, the “Plant response rating, Ryegrass, Italian” value [6, 17] was 40 and the “Plant response rating, Ragweed” value [7, 16] was 0. The “Plant response rating, Ragweed” value [7, 17] was 50, the “Plant response rating, Foxtail, Giant” value [8, 16] was 90 and the “Plant response rating, Foxtail, Giant” value [8, 17] was 90. The “Plant response rating, Kochia” value (Kochia (Kochia scoparia) [9]; [16]) was 70, the “Plant response rating, Kochia” value (Kochia (Kochia scoparia) [9]; [17]) was 80 and the “Plant response rating, Barnyardgrass” value [10] was 90. For the same compound, the “Barnyardgrass plant response rating (0 to 100 scale, 0 is no effect, 100 is complete control)” value [10] was 100, the “Plant response rating, Pigweed” value [11] was 70 and the “Pigweed plant response rating (0 to 100 scale, 0 is no effect, 100 is complete control)” value [11] was 80. The “Plant response rating, Ryegrass, Italian” value [12] was 0, the “Ryegrass, Italian plant response rating (0 to 100 scale, 0 is no effect, 100 is complete control)” value [12] was 0 and the “Plant response rating, Ragweed” value [13] was 50. The “Ragweed plant response rating (0 to 100 scale, 0 is no effect, 100 is complete control)” value [13] was 60, the “Plant response rating, Foxtail, Giant” value [14] was 90 and the “Foxtail, Giant plant response rating (0 to 100 scale, 0 is no effect, 100 is complete control)” value [14] was 100. The “Plant response rating, Kochia” value (Kochia (Kochia scoparia) [15]) was 70 and the “Kochia plant response rating (0 to 100 scale, 0 is no effect, 100 is complete control)” value (Kochia (Kochia scoparia) [15]) was 80.

In the case of `O=C1NCC(c2ccc(OC(F)F)cc2)C1C(=O)Nc1cccc(F)c1F` (stereo not drawn) [Compound 561], the “Plant response rating, Galium” value [1, 16] is reported as 60, the “Plant response rating, Galium” value [1, 17] is reported as 60 and the “Plant response rating, Barnyardgrass” value [2, 16] is reported as 90. The “Plant response rating, Barnyardgrass” value [2, 17] was 90, the “Plant response rating, Blackgrass” value [3, 16] was 50 and the “Plant response rating, Blackgrass” value [3, 17] was 70. The “Plant response rating, Corn” value (corn (Zea mays); [16]) was 10, the “Plant response rating, Corn” value (corn (Zea mays); [17]) was 60 and the “Plant response rating, Wheat” value [4, 16] was 30. The “Plant response rating, Wheat” value [4, 17] was 70, the “Plant response rating, Pigweed” value [5, 16] was 60 and the “Plant response rating, Pigweed” value [5, 17] was 70. The “Plant response rating, Ryegrass, Italian” value [6, 16] was 20, the “Plant response rating, Ryegrass, Italian” value [6, 17] was 60 and the “Plant response rating, Ragweed” value [7, 16] was 20. For the same compound, the “Plant response rating, Ragweed” value [7, 17] was 40, the “Plant response rating, Foxtail, Giant” value [8, 16] was 90 and the “Plant response rating, Foxtail, Giant” value [8, 17] was 90. For the same compound, the “Plant response rating, Kochia” value (Kochia (Kochia scoparia) [9]; [16]) was 70, the “Plant response rating, Kochia” value (Kochia (Kochia scoparia) [9]; [17]) was 80 and the “Plant response rating, Barnyardgrass” value [10] was 90. For the same compound, the “Barnyardgrass plant response rating (0 to 100 scale, 0 is no effect, 100 is complete control)” value [10] was 90, the “Plant response rating, Pigweed” value [11] was 80 and the “Pigweed plant response rating (0 to 100 scale, 0 is no effect, 100 is complete control)” value [11] was 90. For the same compound, the “Plant response rating, Ryegrass, Italian” value [12] was 0, the “Ryegrass, Italian plant response rating (0 to 100 scale, 0 is no effect, 100 is complete control)” value [12] was 40 and the “Plant response rating, Ragweed” value [13] was 80. The “Ragweed plant response rating (0 to 100 scale, 0 is no effect, 100 is complete control)” value [13] was 80, the “Plant response rating, Foxtail, Giant” value [14] was 90 and the “Foxtail, Giant plant response rating (0 to 100 scale, 0 is no effect, 100 is complete control)” value [14] was 90. The “Plant response rating, Kochia” value (Kochia (Kochia scoparia) [15]) was 70 and the “Kochia plant response rating (0 to 100 scale, 0 is no effect, 100 is complete control)” value (Kochia (Kochia scoparia) [15]) was 90.
